Activity calls are given as the source filed them. No cut-off for these calls is given here.

The record followed here is ChEMBL document CHEMBL1152514, “Anti-tumor-initiating effects of phenolic compounds isolated from the bark of Picea jezoensis var. jezoensis” (2009).

Tested on in one assay: not listed separately
Description: Anticancer activity against peroxynitrite/TPA-induced skin cancer in ICR mouse assessed as occurrence of papilloma at 0.187 mg/day, po administered for 2 weeks measured on week 11. The format is functional.
Turning to `Oc1cc(O)cc([C@H]2c3c(cc(O)c4c3O[C@H](c3ccc(O)c(O)c3)[C@@H](O)C4)O[C@@H]2c2ccc(O)c(O)c2)c1` [JEZONOCINOL B], the Activity is 27%.

Another assay has as its system Mus musculus. Description: Anticancer activity against peroxynitrite/TPA-induced skin cancer in ICR mouse assessed as delay in tumor promotion at 0.187 mg/day, po administered for 2 weeks. The format is functional, organism-based.
For the compound `Oc1cc(O)cc([C@H]2c3c(cc(O)c4c3O[C@H](c3ccc(O)c(O)c3)[C@@H](O)C4)O[C@@H]2c2ccc(O)c(O)c2)c1` [JEZONOCINOL B], the outcome was Active.

Tested on in the next assay: not listed separately
Description: Antitumor initiating activity in human Chang cells assessed as ratio of inhibition of cellular transformation in presence of NOR1 to compound and NOR1 at 350 nmol treated 1 min before NOR1 addition measured after 1 hr by light microscopy. The assay is classed as functional.
With `CC(C)c1cc2c(cc1O)[C@@]1(C)CCC[C@@](C)(C(=O)O)[C@@H]1CC2`, the Ratio came to 2.
On the same count and under the same terms, for `CC(=O)Oc1cc(OC(C)=O)c2c(c1)[C@@H]1C3C(=CC(=O)C[C@H]1c1ccc(OC(C)=O)c(OC(C)=O)c1)O[C@H](c1ccc(OC(C)=O)c(OC(C)=O)c1)[C@@H](O)[C@H]23` (stereo not given in full) the value was 1.8.
Regarding `CC(=O)Oc1cc(OC(C)=O)cc([C@H]2c3c(/C=C/c4ccc(OC(C)=O)c(OC(C)=O)c4)cc(OC(C)=O)cc3O[C@@H]2c2ccc(OC(C)=O)c(OC(C)=O)c2)c1`, the Ratio is recorded as 1.9.
Still for that read-out and setting: for `CC(=O)Oc1cc(/C=C/c2ccc3c(c2)O[C@H](c2ccc(OC(C)=O)c(OC(C)=O)c2)[C@@H](c2cc(OC(C)=O)cc(OC(C)=O)c2)O3)cc(OC(C)=O)c1` the value was 1.8; for `CC(=O)Oc1cc(OC(C)=O)cc([C@@H]2c3c(cc(OC(C)=O)c4c3O[C@H](c3ccc(OC(C)=O)c(OC(C)=O)c3)[C@@H](O)C4)O[C@H]2c2ccc(OC(C)=O)c(OC(C)=O)c2)c1`, 1.9; for `CC(=O)Oc1cc(OC(C)=O)cc([C@H]2c3c(cc(OC(C)=O)c4c3O[C@H](c3ccc(OC(C)=O)c(OC(C)=O)c3)[C@@H](O)C4)O[C@@H]2c2ccc(OC(C)=O)c(OC(C)=O)c2)c1`, 1.9.
Take `CC(=O)Oc1ccc(/C=C/c2cc(OC(C)=O)cc3c2[C@H](c2cc(OC(C)=O)cc(OC(C)=O)c2)[C@@H](c2ccc(OC(C)=O)c(OC(C)=O)c2)O3)cc1`: the Ratio was 1.8.
For the compound `COc1cc([C@H]2Oc3cc(C(=O)O)ccc3O[C@@H]2CO)ccc1O` [3-O-METHYL ISOAMERICANOIC ACID A], the Ratio stood at 1.7.
In the case of `O=C1c2c(O)cc(O)cc2O[C@H](c2ccc(O)c(O)c2)[C@H]1O` [(+)-TAXIFOLIN], the Ratio turned out to be 2.5.
`Oc1cc(O)cc(/C=C/c2ccc3c(c2)O[C@H](c2ccc(O)c(O)c2)[C@@H](c2cc(O)cc(O)c2)O3)c1` [CASSIGAROL E]: the Ratio worked out at 2.1.
Same read-out and setting: for `O=C(O)/C=C/c1ccc(O)cc1` [COUMARIC ACID] the value was 1.9; for `COc1cc(/C=C/C(=O)CC(=O)/C=C/c2ccc(O)c(OC)c2)ccc1O` [CURCUMIN], 2.1.
In the case of `COc1cc([C@@H]2Oc3c(OC)cc(CCCO)cc3[C@H]2CO)ccc1O` [DIHYDRODEHYDRODICONIFERYL ALCOHOL], the Ratio was 1.8.
The same measure, in the same setting: to `COc1cc([C@H]2c3cc(O)c(OC)cc3C[C@@H](CO)[C@@H]2CO)ccc1O` [ISOLARICIRESINOL] belongs 2; to `Oc1cc(O)cc([C@@H]2c3c(cc(O)c4c3O[C@H](c3ccc(O)c(O)c3)[C@@H](O)C4)O[C@H]2c2ccc(O)c(O)c2)c1` [JEZONOCINOL A], 2.7; to `Oc1cc(O)cc([C@H]2c3c(cc(O)c4c3O[C@H](c3ccc(O)c(O)c3)[C@@H](O)C4)O[C@@H]2c2ccc(O)c(O)c2)c1` [JEZONOCINOL B], 2.7.
The same measure, in the same setting: to `O=C1C=C2O[C@H](c3ccc(O)c(O)c3)[C@@H](O)[C@@H]3c4c(O)cc(O)cc4[C@H](C23)[C@H](c2ccc(O)c(O)c2)C1` (stereo not given in full) [JEZONOCINOL C] belongs 2.3; to `O=C1C=C(/C=C/c2ccc(O)c(O)c2)[C@@H]2C(=O)[C@H]1[C@H](c1ccc(O)c(O)c1)[C@H]2c1cc(O)cc(O)c1` [JEZONODIONE], 2.2.
Turning to `Oc1cc2c3c(c4cc(O)cc5c4c(c3c1)[C@@H](c1ccc(O)c(O)c1)O5)[C@@H](c1ccc(O)c(O)c1)O2` [JEZONOFOL], the Ratio amounted to 2.3.
Still for that read-out and setting: for `COc1cc(/C=C2/C(=O)O[C@H](c3ccc(O)c(O)c3)[C@H]2c2cc(O)cc(O)c2)ccc1O` [JEZONOLIDE] the value was 2.1.
On the same count and under the same terms, to `COc1cc(C[C@H]2CO[C@H](c3ccc(O)c(OC)c3)[C@H]2CO)ccc1O` [LARICIRESINOL] belongs 2.
On the same count and under the same terms, for `Oc1cc(O)cc(/C=C/c2ccc(O)c(O)c2)c1` [PICEATANNOL] the value was 2; for `O=Cc1ccc(O)c(O)c1` [PROTOCATECHUALDEHYDE], 1.8.
For `O=C(O)c1ccc(O)c(O)c1` [PROTOCATECHUIC ACID], the Ratio is reported as 1.8.
In the case of `O=c1c(O)c(-c2ccc(O)c(O)c2)oc2cc(O)cc(O)c12` [QUERCETIN], the Ratio is 2.9.
On the same count and under the same terms, for `Oc1ccc(/C=C/c2cc(O)cc3c2[C@H](c2cc(O)cc(O)c2)[C@@H](c2ccc(O)c(O)c2)O3)cc1` [SCIRPUSIN A] the value was 2; for `Oc1cc(O)cc([C@H]2c3c(/C=C/c4ccc(O)c(O)c4)cc(O)cc3O[C@@H]2c2ccc(O)c(O)c2)c1` [TRANS-SCIRPUSIN B], 2.2.

Tested on in another assay: not listed separately
Description: Anticancer activity against peroxynitrite/TPA-induced skin cancer in ICR mouse assessed as average number of papilloma per mouse at 0.187 mg/day, po administered for 2 weeks measured on week 20. The assay is classed as functional.
As to `Oc1cc(O)cc([C@H]2c3c(cc(O)c4c3O[C@H](c3ccc(O)c(O)c3)[C@@H](O)C4)O[C@@H]2c2ccc(O)c(O)c2)c1` [JEZONOCINOL B], the Activity was found to be 3.1.
